Reference: patent US9133181B2, “Substituted 6-(4-hydroxy-phenyl)-1H-pyrazolo[3,4-b]pyridine derivatives as kinase inhibitors” (SANOFI, priority 2012, dated 2015)

Target: T1, human full-length recombinant PKC βII (Homo sapiens, UniProt P05771)
T1 construct: Active human full-length recombinant PKC βII; purchased Invitrogen GmbH, Darmstadt, Germany
Test: Determination of PKC βII inhibition (Caliper mobility shift kinase assay)
Format: biochemical
Conditions: final compound concentration 1.14 μM (±0.15 μM); 60 min incubation at 32° C.
Outline: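 Compound was tested at a final 1.14 µM (±0.15 µM), with % inhibition derived from the product/(substrate+product) peak ratio on a Caliper mobility-shift read-out. Full-length PKC βII was activated by CaCl2, PS and DAG in pH 7.4 Hepes/MgCl2. Peptide and ATP were at 3 µM and 120 µM in the added mix. Incubation was 60 min at 32 °C.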

T1 sequence (P05771 1-673 isoform P05771-2): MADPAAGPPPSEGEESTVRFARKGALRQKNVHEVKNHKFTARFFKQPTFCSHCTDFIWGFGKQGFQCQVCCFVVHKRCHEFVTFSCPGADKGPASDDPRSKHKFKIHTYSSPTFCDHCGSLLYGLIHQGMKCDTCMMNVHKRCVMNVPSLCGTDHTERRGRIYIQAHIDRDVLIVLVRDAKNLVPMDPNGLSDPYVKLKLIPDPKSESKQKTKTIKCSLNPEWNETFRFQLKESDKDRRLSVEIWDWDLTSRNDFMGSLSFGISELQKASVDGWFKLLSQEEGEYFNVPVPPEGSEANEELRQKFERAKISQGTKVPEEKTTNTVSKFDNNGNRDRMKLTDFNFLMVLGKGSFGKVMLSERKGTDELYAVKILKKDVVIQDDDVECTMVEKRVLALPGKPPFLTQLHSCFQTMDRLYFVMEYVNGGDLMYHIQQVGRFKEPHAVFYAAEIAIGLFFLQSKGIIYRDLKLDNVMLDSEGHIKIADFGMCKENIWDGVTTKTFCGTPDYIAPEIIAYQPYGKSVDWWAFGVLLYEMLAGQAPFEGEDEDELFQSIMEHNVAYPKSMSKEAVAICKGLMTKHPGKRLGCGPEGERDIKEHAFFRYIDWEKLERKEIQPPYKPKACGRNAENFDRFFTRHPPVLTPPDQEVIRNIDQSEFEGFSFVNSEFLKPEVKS

Row | inhibition at 1.14 µM | % Inhibition | Structure (SMILES)
1 | 91% |  | Cc1n[nH]c2nc(-c3ccc(O)cc3F)cc(CN3CCNC[C@@H]3c3ccccc3)c12 [Example 109, 3-Fluoro-4-[3-methyl-4-((S)-2-phenyl-piperazin-1-ylmethyl)-1H-pyrazolo[3,4-b]pyridin-6-yl]-phenol]
2 | 42% |  | Cc1n[nH]c2nc(-c3ccc(O)cc3F)cc(CN3CCNC[C@H]3c3ccccc3)c12 [Example 110, 3-Fluoro-4-[3-methyl-4-((R)-2-phenyl-piperazin-1-ylmethyl)-1H-pyrazolo[3,4-b]pyridin-6-yl]-phenol]
3 |  | 88% | Cc1n[nH]c2nc(-c3ccc(O)cc3)cc(CN3C[C@@H](C)NC[C@@H]3c3ccccc3)c12 [Example 111, 4-[3-Methyl-4-((2S,5R)-5-methyl-2-phenyl-piperazin-1-ylmethyl)-1H-pyrazolo[3,4-b]pyridin-6-yl]-phenol]
4 | 85% |  | Cc1n[nH]c2nc(-c3ccc(O)cc3)cc(CN3C[C@H](C)NC[C@H]3c3ccccc3)c12 [Example 112, 4-[3-Methyl-4-((2R,5S)-5-methyl-2-phenyl-piperazin-1-ylmethyl)-1H-pyrazolo[3,4-b]pyridin-6-yl]-phenol]
5 | 81% |  | Cc1n[nH]c2nc(-c3ccc(O)cc3)cc(CN3CCNC[C@@H]3c3ccc(C(F)(F)F)cc3)c12 [Example 113, 4-{3-Methyl-4-[(S)-2-(4-trifluoromethyl-phenyl)-piperazin-1-ylmethyl]-1H-pyrazolo[3,4-b]pyridin-6-yl}-phenol]
6 | 57% |  | Cc1n[nH]c2nc(-c3ccc(O)cc3)cc(CN3CCNC[C@H]3c3ccc(C(F)(F)F)cc3)c12 [Example 114, 4-{3-Methyl-4-[(R)-2-(4-trifluoromethyl-phenyl)-piperazin-1-ylmethyl]-1H-pyrazolo[3,4-b]pyridin-6-yl}-phenol]
7 | 94% |  | Cc1n[nH]c2nc(-c3ccc(O)cc3F)cc(CN3C[C@H](C)NCC3(C)C)c12 [Example 115, 3-Fluoro-4-[3-methyl-4-((S)-2,2,5-trimethyl-piperazin-1-ylmethyl)-1H-pyrazolo[3,4-b]pyridin-6-yl]-phenol]
8 | 95% |  | Cc1n[nH]c2nc(-c3ccc(O)cc3F)cc(CN3C[C@@H](C)NCC3(C)C)c12 [Example 116, 3-Fluoro-4-[3-methyl-4-((R)-2,2,5-trimethyl-piperazin-1-ylmethyl)-1H-pyrazolo[3,4-b]pyridin-6-yl]-phenol]
9 | 99% |  | Cc1n[nH]c2nc(-c3ccc(O)cc3F)cc(CN3CCNC[C@]3(C)c3ccccc3)c12 [Example 117, 3-Fluoro-4-[3-methyl-4-((S)-2-methyl-2-phenyl-piperazin-1-ylmethyl)-1H-pyrazolo[3,4-b]pyridin-6-yl]-phenol]
10 | 84% |  | Cc1n[nH]c2nc(-c3ccc(O)cc3F)cc(CN3CCNC[C@@]3(C)c3ccccc3)c12 [Example 118, 3-Fluoro-4-[3-methyl-4-((R)-2-methyl-2-phenyl-piperazin-1-ylmethyl)-1H-pyrazolo[3,4-b]pyridin-6-yl]-phenol]
11 | 86% |  | Cc1n[nH]c2nc(-c3ccc(O)cc3F)cc(CN3CCNC[C@@H]3c3cccc(F)c3)c12 [Example 119, 3-Fluoro-4-{4-[(S)-2-(3-fluoro-phenyl)-piperazin-1-ylmethyl]-3-methyl-1H-pyrazolo[3,4-b]pyridin-6-yl}-phenol]
12 | 102% |  | Cc1n[nH]c2nc(-c3ccc(O)cc3F)cc(CN3CCNC[C@H]3c3cccc(F)c3)c12 [Example 120, 3-Fluoro-4-{4-[(R)-2-(3-fluoro-phenyl)-piperazin-1-ylmethyl]-3-methyl-1H-pyrazolo[3,4-b]pyridin-6-yl}-phenol]
13 | 100% |  | CC[C@]1(C)CNC(C)(C)CN1Cc1cc(-c2ccc(O)cc2F)nc2[nH]nc(C)c12 [Example 121, 4-[4-((R)-2-Ethyl-2,5,5-trimethyl-piperazin-1-ylmethyl)-3-methyl-1H-pyrazolo[3,4-b]pyridin-6-yl]-3-fluoro-phenol]
14 | 100% |  | CC[C@@]1(C)CNC(C)(C)CN1Cc1cc(-c2ccc(O)cc2F)nc2[nH]nc(C)c12 [Example 122, 4-[4-((S)-2-Ethyl-2,5,5-trimethyl-piperazin-1-ylmethyl)-3-methyl-1H-pyrazolo[3,4-b]pyridin-6-yl]-3-fluoro-phenol]
15 | 88% |  | Cc1n[nH]c2nc(-c3ccc(O)cc3F)cc(CN3CC(C)(C)NC[C@H]3C)c12 [Example 123, 3-Fluoro-4-[3-methyl-4-((R)-2,5,5-trimethyl-piperazin-1-ylmethyl)-1H-pyrazolo[3,4-b]pyridin-6-yl]-phenol]
16 | 83% |  | Cc1n[nH]c2nc(-c3ccc(O)cc3F)cc(CN3CC(C)(C)NC[C@@H]3C)c12 [Example 124, 3-Fluoro-4-[3-methyl-4-((S)-2,5,5-trimethyl-piperazin-1-ylmethyl)-1H-pyrazolo[3,4-b]pyridin-6-yl]-phenol]

Row | inhibition at 1.14 µM | % Inhibition | Structure (SMILES)
17 | 87% |  | Cc1n[nH]c2nc(-c3ccc(O)cc3F)cc(CN3CC(C)(C)NC[C@]3(C)C3CC3)c12 [Example 125, 4-[4-((S)-2-Cyclopropyl-2,5,5-trimethyl-piperazin-1-ylmethyl)-3-methyl-1H-pyrazolo[3,4-b]pyridin-6-yl]-3-fluoro-phenol]
18 | 91% |  | Cc1n[nH]c2nc(-c3ccc(O)cc3F)cc(CN3CC(C)(C)NC[C@@]3(C)C3CC3)c12 [Example 126, 4-[4-((R)-2-Cyclopropyl-2,5,5-trimethyl-piperazin-1-ylmethyl)-3-methyl-1H-pyrazolo[3,4-b]pyridin-6-yl]-3-fluoro-phenol]
19 | 87% |  | Cc1n[nH]c2nc(-c3ccc(O)cc3F)cc(CN3C[C@H](C)NCC34CCCC4)c12 [Example 127, 3-Fluoro-4-[3-methyl-4-((S)-8-methyl-6,9-diaza-spiro[4.5]dec-6-ylmethyl)-1H-pyrazolo[3,4-b]pyridin-6-yl]-phenol]
20 | 71% |  | Cc1n[nH]c2nc(-c3ccc(O)cc3F)cc(CN3C[C@@H](C)NCC34CCCC4)c12 [Example 128, 3-Fluoro-4-[3-methyl-4-((R)-8-methyl-6,9-diaza-spiro[4.5]dec-6-ylmethyl)-1H-pyrazolo[3,4-b]pyridin-6-yl]-phenol]
21 | 97% |  | Cc1n[nH]c2nc(-c3ccc(O)cc3F)cc(CN3C[C@H](C(C)C)NCC3(C)C)c12 [Example 129, 3-Fluoro-4-[4-((S)-5-isopropyl-2,2-dimethyl-piperazin-1-ylmethyl)-3-methyl-1H-pyrazolo[3,4-b]pyridin-6-yl]-phenol]
22 | 98% |  | Cc1n[nH]c2nc(-c3ccc(O)cc3F)cc(CN3C[C@@H](C(C)C)NCC3(C)C)c12 [Example 130, 3-Fluoro-4-[4-((R)-5-isopropyl-2,2-dimethyl-piperazin-1-ylmethyl)-3-methyl-1H-pyrazolo[3,4-b]pyridin-6-yl]-phenol]
23 | 103% |  | Cc1n[nH]c2nc(-c3ccc(O)cc3)cc(CN3C[C@H](C)NCC3(C)C)c12 [Example 131, 4-[3-Methyl-4-((S)-2,2,5-trimethyl-piperazin-1-ylmethyl)-1H-pyrazolo[3,4-b]pyridin-6-yl]-phenol]
24 | 97% |  | Cc1n[nH]c2nc(-c3ccc(O)cc3)cc(CN3C[C@@H](C)NCC3(C)C)c12 [Example 132, 4-[3-Methyl-4-((R)-2,2,5-trimethyl-piperazin-1-ylmethyl)-1H-pyrazolo[3,4-b]pyridin-6-yl]-phenol]
25 | 103% |  | Cc1n[nH]c2nc(-c3ccc(O)cc3F)cc(CN3CC(C)(C)NC[C@@H]3C(C)C)c12 [Example 133, 3-Fluoro-4-[4-((S)-2-isopropyl-5,5-dimethyl-piperazin-1-ylmethyl)-3-methyl-1H-pyrazolo[3,4-b]pyridin-6-yl]-phenol]
26 | 102% |  | Cc1n[nH]c2nc(-c3ccc(O)cc3F)cc(CN3CC(C)(C)NC[C@H]3C(C)C)c12 [Example 134, 3-Fluoro-4-[4-((R)-2-isopropyl-5,5-dimethyl-piperazin-1-ylmethyl)-3-methyl-1H-pyrazolo[3,4-b]pyridin-6-yl]-phenol]
27 | 106% |  | CC[C@]1(C)CN(Cc2cc(-c3ccc(O)cc3F)nc3[nH]nc(C)c23)C(C)(C)CN1 [Example 135, 4-[4-((R)-5-Ethyl-2,2,5-trimethyl-piperazin-1-ylmethyl)-3-methyl-1H-pyrazolo[3,4-b]pyridin-6-yl]-3-fluoro-phenol]
28 | 104% |  | CC[C@@]1(C)CN(Cc2cc(-c3ccc(O)cc3F)nc3[nH]nc(C)c23)C(C)(C)CN1 [Example 136, 4-[4-((S)-5-Ethyl-2,2,5-trimethyl-piperazin-1-ylmethyl)-3-methyl-1H-pyrazolo[3,4-b]pyridin-6-yl]-3-fluoro-phenol]
29 | 98% |  | Cc1n[nH]c2nc(-c3ccc(O)cc3F)cc(CN3CC4(CCCC4)NC[C@@H]3C)c12 [Example 137, 3-Fluoro-4-[3-methyl-4-((S)-8-methyl-6,9-diaza-spiro[4.5]dec-9-ylmethyl)-1H-pyrazolo[3,4-b]pyridin-6-yl]-phenol]
30 | 98% |  | Cc1n[nH]c2nc(-c3ccc(O)cc3F)cc(CN3CC4(CCCC4)NC[C@H]3C)c12 [Example 138, 3-Fluoro-4-[3-methyl-4-((R)-8-methyl-6,9-diaza-spiro[4.5]dec-9-ylmethyl)-1H-pyrazolo[3,4-b]pyridin-6-yl]-phenol]
31 | 95% |  | Cc1n[nH]c2nc(-c3ccc(O)cc3)cc(CN3CC(C)(C)NC[C@@H]3C)c12 [Example 139, 4-[3-Methyl-4-((S)-2,5,5-trimethyl-piperazin-1-ylmethyl)-1H-pyrazolo[3,4-b]pyridin-6-yl]-phenol]
32 | 98% |  | Cc1n[nH]c2nc(-c3ccc(O)cc3)cc(CN3CC(C)(C)NC[C@H]3C)c12 [Example 140, 4-[3-Methyl-4-((R)-2,5,5-trimethyl-piperazin-1-ylmethyl)-1H-pyrazolo[3,4-b]pyridin-6-yl]-phenol]
